Where “and” joins values, the source holds several entries; their conditions need not be identical. Equal entries are not always repeated. Entries after “also recorded” stand apart in the source; their conditions may differ.
What was measured:
R6-2 mice = test: R6-2 transgenic mouse model for Huntington disease (lifespan, behavior); assay type: in vivo; conditions: pilot studies, s.c. daily 5 days per week; MGV-1 15 mg/kg, PK 11195 15 mg/kg, MGV-2 15 and 7.5 mg/kg
Description: Huntington disease in humans is a hereditary disease including neurodegeneration leading to degradation in motor performance, continual involuntary movements, tremors, cardiovascular and respiratory impairments, and finally leading to death of the patients having the disease.[88] For this study, R6-2 mice (~120 CAG repeats B6CBA-Tg(HDexon1)62 Gpb/3J) mice were used as a transgenic mouse model for Huntington disease. For this purpose, mice obtained from the Jackson Laboratory were bred. In particular, males hemizygous for Tg(HDexon1)62 Gpb, and females from the wild-type background strain B6CBAF1/J, were bred according to the protocol of Jackson Laboratory.
For tests of drug efficacy, male offspring hemizygous for Tg(HDexon1)62 Gpb were used to determine drug effect on lifespan, motor activity, and general well-being of the animals. Drug treatment for this study consisted of daily (5 continuous days per week) subcutaneous injections in the neck area of mice with 20 μl of: the drug vehicle DMSO (vehicle control), 2-Cl-MGV-1(7.5 mg/kg) and 2-Cl-MGV-2 (7.5 mg/kg). […] Quantities were used according to previous studies regarding TSPO ligands[48] and adapted depending on the findings in the course of the pilot studies. The treatments were given until the animals died a natural death. Behavioral experiments included distance covered in an open field apparatus,[89] freezing,[89] and balance on a rotor-rod.[90] Spontaneous tremor activity was evaluated using a Hamilton–Kinder sensor in a soundproof ventilated apparatus (Kinder Scientific). The assays for locomotor activity, tremors, and body weight were performed on a weekly basis, together with evaluation of the well-being of the mice. Finally, the day of death was noted. As lifespan data were most pronounced, these are presented in the present description of the results. No adverse effects of any of the drug treatments were noted, neither for specific tests, nor for general observations. Importantly, DMSO had no effect by itself as compared with naive mice or saline-injected mice with various behavioral assays.[20]

U118MG cells [1] = test: Mitochondrial membrane potential (JC-1) assay in U118MG cells exposed to glutamate; assay type: cell-based, human; conditions: 25 μM compound, 35 mM glutamate
Description: JC-1 was used to assay changes in Δψm, as described previously.[71],[79] Owing to charges distributed along JC-1 molecules, they pass unimpaired (charged) mitochondrial membranes and enter the mitochondrial matrix. There the J-molecules form J-aggregates, which emit at 590 nm (orange–red fluorescence). […] The monomers emit at 527 nm (green fluorescence). A decrease in the red–green fluorescence intensity ratio is an indication for mitochondrial depolarization. As a positive control, the proton ionophore carbonyl cyanide m-chlorophenylhydrazone was used as described previously.[71] Cells were collected and prepared for suspension in 10 μg/ml of JC-1 solution in PBS. After incubation at 37 °C for 30 min in the dark, the cells were washed with 0.5 ml of PBS, and the cell suspensions were analyzed with the BD FACSCalibur flow cytometer.

U118MG cells [2] = test: Mitochondrial ROS / cardiolipin oxidation (NAO) assay in U118MG cells exposed to glutamate; assay type: cell-based, human; conditions: 25 μM compound, 35 mM glutamate
Description: Cardiolipin is present in the inner mitochondrial membrane, at the contact sites with the outer mitochondrial membrane. By application of NAO, we assayed cardiolipin peroxidation as an indication of mitochondrial ROS generation, as described previously.[71] NAO binds with high affinity to non-oxidized cardiolipin in a 2 : 1 ratio, but with less affinity to oxidized cardiolipin, the latter which is reflected by lower levels of green NAO fluorescence.[78] For our study, cells were collected and centrifuged at 1200×g for 5 min, 4 °C. Cell pellets were re-suspended in 0.5 ml of 0.1 μM NAO and incubated for 30 min at 37 °C in the dark. Then, the cells were washed once with 0.5 ml PBS and transferred into 5 ml FALCON FACS tubes and analyzed with the aid of a BD FACSCalibur flow cytometer using CellQuest software (BD Biosciences, Franklin Lakes, NJ, USA).

U118MG cells [3] = test: LDH cytotoxicity assay, glutamate-induced cell death of U118MG cells; conditions: 35 mM glutamate
Experimental: (1) For U118MG cells, glutamate at a concentration of 35 mM was applied with or without MGV-1. As discussed, glutamate levels in normal healthy brain tissue can average 15 mM, and these levels can be doubled in diseased brain tissue, whereas in cell organelles glutamate levels can be as high as 250 mM (as discussed). […] In more detail, U118MG cells were seeded, 2×10^5 cells per well of 6-well plates and 6×10^3 cells per well of 96-well plates. Twenty-four hours after seeding, U118MG cells were pretreated with MGV-1 (or one of the other compounds) at various concentrations from 0.1 nM–100 μM. Twenty-four hours after the pretreatment, the cells were exposed to 35 mM of glutamate. […] The negative control was vehicle, that is, ethanol with a final concentration of 1%. […] The positive control was exposure to 35 mM of glutamate alone (with 200 μM of glycine).
Wells of 96-well plates were with 6000 cells per well and treated according the protocol presented above. We used the Cytotoxicity Detection Kit (LDH) (Roche Pharmacuticals) according to the manufacturer’s instructions. When cell plasma membranes are damaged, the cytoplasmic enzyme LDH is released into the medium. The amount of formazan formed is proportional to the amount of LDH released.[77] The resulting color intensity is proportional to the number of damaged cells. Absorbance at 492 nm with reference at 690 nm was measured with the Spectrophotometer Zenyth 200 (Anthos) and the results were calculated and normalized according to the formula presented by the manufacturer.

[4] = target: T1, 18 kDa translocator protein (TSPO) (Rattus norvegicus, UniProt P16257); test: TSPO binding, displacement of [3H]PK 11195 in rat kidney membranes
T1 construct: 400 μl of homogenized rat kidney membranes (5 mg of homogenate/ml); from tissue; host or cells: rat kidney (homogenized membranes)
Experimental: After incubation for 60 min at 4 °C, samples were filtered under vacuum over Whatman GF/C filters and washed three times with 5 ml of 50 mM Tris-HCl buffer, pH 7.4. The filters were incubated in CytoScint (MP Biomedicals) and radioactivity was measured after 12 h with a 1600 CA Tri-Carb liquid scintillation analyzer (Packard). Inhibitory constant (Ki) values were calculated by the equation Ki=IC50/(1+C/Kd), where C=[^3H]

PC12 cells = test: Cell death of PC12 cells, glutamate with or without MGV-1 (LDH); assay type: cell-based, rat
Experimental: (2) For PC12 cells (as for U118MG cells), dose-response assays of the lethal effects of glutamate on PC12 cells established 35 mM as an optimal concentration for glutamate for induction of LDH activity in the medium in the range of 20–40% as compared with the effect of the positive control, 1% Triton X-100, the latter which is defined as causing 100% of LDH release in the medium.

T1 sequence (P16257 whole entry): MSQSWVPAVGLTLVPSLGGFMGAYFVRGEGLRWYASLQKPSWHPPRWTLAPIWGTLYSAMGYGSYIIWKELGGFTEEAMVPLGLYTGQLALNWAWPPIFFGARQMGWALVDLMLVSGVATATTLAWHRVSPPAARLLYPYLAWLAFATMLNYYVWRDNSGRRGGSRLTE

CN(C)C(=O)Oc1nc(-c2ccccc2)nc2ccccc12 [MGV-1, 2-phenylquinazolin-4-yl dimethylcarbamate]
Effect on behavior and lifespan of R6-2 mice (R6-2 mice): did not appear to have an effect | Prevention of collapse of the ΔΨm induced by glutamate (JC-1) (U118MG cells [1]): prevention of the collapse of the ΔΨm | Prevention of cardiolipin oxidation / mitochondrial ROS generation induced by glutamate (NAO) (U118MG cells [2]): prevent cardiolipin oxidation | Protection against glutamate-induced cell death (LDH) (U118MG cells [3]; compound 10-100 μM, 24 h pretreatment): protect against lethal effects of glutamate; also recorded: prevented cell death induction | Most effective concentration for protection against cell death (U118MG cells [3]; tested 0.1 nM-100 μM): 25 µM and 50 µM | Ki [4]: 825 ± 315 nM | Cell death of PC12 cells by the compound by itself (PC12 cells; 100 μM, no glutamate): can induce cell death | Enhancement of cell death induction by glutamate (PC12 cells; PC12, 50 μM MGV-1, 35 mM glutamate): threefold | Optimal concentration as enhancer of cell death induced by glutamate (PC12 cells; PC12, 35 mM glutamate, tested 0.1 nM-100 μM): 50 µM

From article PMC4979516, “Quinazoline-based tricyclic compounds that regulate programmed cell death, induce neuronal differentiation, and are curative in animal models for excitotoxicity and hereditary brain disease” (Cell Death Discovery, 2015)
